{"source": "patent US8071383B2", "about": "“D-amino acid selection for soybean” (BASF Plant Science GmbH, priority 2006, dated 2011)", "key": {"[1]": {"tested_on": "soybean primary node explants inoculated with REW008", "test": "D-alanine and D-alanine/D-serine killing curves using primary node explants", "format": "cell-based, Glycine max", "conditions": "for D-alanine Kill Curve-regeneration (%) after 3 weeks on SIM: Experiment 1; for D-alanine + 7.5 mM D-serine Kill Curve-regeneration (%) after 3 weeks on SIM: Experiment 2", "method": "Kill curves for D-alanine selection with and without 7.5 mM D-serine were conducted for future experiments using dao1 as a selectable marker gene. The combination of using D-alanine and D-serine was also performed for the dao1 gene which can metabolize both D-alanine and D-serine. The binary plasmids RET019 (Pactin-dao1, Pubi-gus) and REW008 (Pnos-bar, Pubi-gus) were used as a positive and a negative control, respectively, and the T-DNA mobilized into soybean using Agrobacterium rhizogenes strain SHA017pSB1.\nExplants were inoculated with Agrobacterium, co-cultivated for 5 days, then moved onto shoot induction medium with or without selection for one week. After that time, explants were transferred onto new SIM with selection.\nIn experiment 1, D-alanine was added to the SIM medium at the following concentrations: 0, 3, 7.5, 10, 20, 30, and 50 mM.\nIn experiment 2, D-alanine was added in the same concentrations with 7.5 mM D-serine.\nThe experimental design was as follows: T(treatment)1: 7 explants inoculated with REW008 with 1 week recovery; T2: 7 explants inoculated with REW008 with no recovery; The results of the experiment are shown in Table 2b. […] This drop was not seen on explants with recovery until 20 mM D-alanine. When in combination with D-serine, the explants do have reduced regeneration at lower concentrations, between 7.5 and 10 mM."}, "soybean explants": {"tested_on": "soybean explants", "test": "SELDA selection and co-cultivation hormones, transformation efficiency", "format": "cell-based, Glycine max", "conditions": "for Ave TE (%) / Confirmed events / TE range (%): vector RLM407, D-serine selection", "method": "In the first experiment, the experimental design included 10 repetitions over time (cutting experiments by 3 researchers) with 4 different co-cultivation media (treatments) per repetition and a minimum of 50 explants per treatment. Solid co-cultivation was prepared as stated earlier except the hormone, BAP, was replaced with one of the 4 following hormones: 7.5 μM BAP, 1.0 μM kinetin, 5.0 μM kinetin, or 7.5 μM kinetin. In the second experiment, the experimental design included 3 repetitions over time (cutting experiments by 1 researcher) with 5 different co-cultivation media (treatments) per repetition and a minimum of 50 explants per treatment. Solid co-cultivation was prepared by replacing BAP with one of the 5 following hormones: 7.5 μM BAP, 1.0 μM kinetin, 3 μM kinetin, 5 μM kinetin, or 7 μM kinetin.\nFor both experiments, explants were prepared, inoculated with 50 mL of liquid co-cultivation medium containing SHA017/pSB1 carrying vector RLM407 for 30 minutes, and then randomly placed onto 1 of 4 or 5 solid co-cultivation media treatments, respectively. The protocol was followed as stated above with the D-serine selection regime: one week on shoot induction without selection, 3 weeks on shoot induction medium with 7.5 mM D-serine, then 5 mM D-serine throughout shoot elongation. Only one shoot per explant was removed to eliminate regeneration of clones. Putative transformants were confirmed for the presence of the dsda gene using quantitative PCR (TaqMan) and the transformation efficiency (TE) was calculated using the formula: [(number of dsda positive TaqMan confirmed independent events/total number of explants inoculated (n))*100]."}, "[2]": {"conditions": "Table 6 (experiment 1), 1 uM Kinetin in co-cultivation medium"}, "[3]": {"conditions": "Table 6 (experiment 1), 5 uM Kinetin in co-cultivation medium"}, "[4]": {"conditions": "Table 6 (experiment 1), 7.5 uM Kinetin in co-cultivation medium"}, "[5]": {"conditions": "Table 7 (experiment 2), 1 uM Kinetin in co-cultivation medium"}, "[6]": {"conditions": "Table 7 (experiment 2), 3 uM Kinetin in co-cultivation medium"}, "[7]": {"conditions": "Table 7 (experiment 2), 5 uM Kinetin in co-cultivation medium"}, "[8]": {"conditions": "Table 7 (experiment 2), 7 uM Kinetin in co-cultivation medium"}, "[9]": {"conditions": "Table 6 (experiment 1), 7.5 uM BAP in co-cultivation medium"}, "[10]": {"conditions": "Table 7 (experiment 2), 7.5 uM BAP in co-cultivation medium"}}, "data": [{"smiles": "C[C@@H](N)C(=O)O", "note": "[D-alanine]", "values": [{"measurement": "D-alanine Kill Curve-regeneration (%) after 3 weeks on SIM", "setting": "[1]; 3 mM D-alanine, T1: REW008 with 1 week recovery", "result": 100, "unit": "%"}, {"measurement": "D-alanine Kill Curve-regeneration (%) after 3 weeks on SIM", "setting": "[1]; 3 mM D-alanine, T2: REW008 with no recovery", "result": 71, "unit": "%"}, {"measurement": "D-alanine Kill Curve-regeneration (%) after 3 weeks on SIM", "setting": "[1]; 7.5 mM D-alanine, T1: REW008 with 1 week recovery", "result": 100, "unit": "%"}, {"measurement": "D-alanine Kill Curve-regeneration (%) after 3 weeks on SIM", "setting": "[1]; 7.5 mM D-alanine, T2: REW008 with no recovery", "result": 86, "unit": "%"}, {"measurement": "D-alanine Kill Curve-regeneration (%) after 3 weeks on SIM", "setting": "[1]; 10 mM D-alanine, T1: REW008 with 1 week recovery", "result": 100, "unit": "%"}, {"measurement": "D-alanine Kill Curve-regeneration (%) after 3 weeks on SIM", "setting": "[1]; 10 mM D-alanine, T2: REW008 with no recovery", "result": 71, "unit": "%"}, {"measurement": "D-alanine Kill Curve-regeneration (%) after 3 weeks on SIM", "setting": "[1]; 20 mM D-alanine, T1: REW008 with 1 week recovery", "result": 100, "unit": "%"}, {"measurement": "D-alanine Kill Curve-regeneration (%) after 3 weeks on SIM", "setting": "[1]; 20 mM D-alanine, T2: REW008 with no recovery", "result": 27, "unit": "%"}, {"measurement": "D-alanine Kill Curve-regeneration (%) after 3 weeks on SIM", "setting": "[1]; 30 mM D-alanine, T1: REW008 with 1 week recovery", "result": 29, "unit": "%"}, {"measurement": "D-alanine Kill Curve-regeneration (%) after 3 weeks on SIM", "setting": "[1]; 30 mM D-alanine, T2: REW008 with no recovery", "result": 0, "unit": "%"}, {"measurement": "D-alanine Kill Curve-regeneration (%) after 3 weeks on SIM", "setting": "[1]; 50 mM D-alanine, T1: REW008 with 1 week recovery", "result": 0, "unit": "%"}, {"measurement": "D-alanine Kill Curve-regeneration (%) after 3 weeks on SIM", "setting": "[1]; 50 mM D-alanine, T2: REW008 with no recovery", "result": 0, "unit": "%"}, {"measurement": "D-alanine + 7.5 mM D-serine Kill Curve-regeneration (%) after 3 weeks on SIM", "setting": "[1]; 3 mM D-alanine + 7.5 mM D-serine, T1: REW008 with 1 week recovery", "result": 100, "unit": "%"}, {"measurement": "D-alanine + 7.5 mM D-serine Kill Curve-regeneration (%) after 3 weeks on SIM", "setting": "[1]; 3 mM D-alanine + 7.5 mM D-serine, T2: REW008 with no recovery", "result": 100, "unit": "%"}, {"measurement": "D-alanine + 7.5 mM D-serine Kill Curve-regeneration (%) after 3 weeks on SIM", "setting": "[1]; 7.5 mM D-alanine + 7.5 mM D-serine, T1: REW008 with 1 week recovery", "result": 100, "unit": "%"}, {"measurement": "D-alanine + 7.5 mM D-serine Kill Curve-regeneration (%) after 3 weeks on SIM", "setting": "[1]; 7.5 mM D-alanine + 7.5 mM D-serine, T2: REW008 with no recovery", "result": 71, "unit": "%"}, {"measurement": "D-alanine + 7.5 mM D-serine Kill Curve-regeneration (%) after 3 weeks on SIM", "setting": "[1]; 10 mM D-alanine + 7.5 mM D-serine, T1: REW008 with 1 week recovery", "result": 71, "unit": "%"}, {"measurement": "D-alanine + 7.5 mM D-serine Kill Curve-regeneration (%) after 3 weeks on SIM", "setting": "[1]; 10 mM D-alanine + 7.5 mM D-serine, T2: REW008 with no recovery", "result": 57, "unit": "%"}, {"measurement": "D-alanine + 7.5 mM D-serine Kill Curve-regeneration (%) after 3 weeks on SIM", "setting": "[1]; 20 mM D-alanine + 7.5 mM D-serine, T1: REW008 with 1 week recovery", "result": 57, "unit": "%"}, {"measurement": "D-alanine + 7.5 mM D-serine Kill Curve-regeneration (%) after 3 weeks on SIM", "setting": "[1]; 20 mM D-alanine + 7.5 mM D-serine, T2: REW008 with no recovery", "result": 0, "unit": "%"}, {"measurement": "D-alanine + 7.5 mM D-serine Kill Curve-regeneration (%) after 3 weeks on SIM", "setting": "[1]; 30 mM D-alanine + 7.5 mM D-serine, T1: REW008 with 1 week recovery", "result": 0, "unit": "%"}, {"measurement": "D-alanine + 7.5 mM D-serine Kill Curve-regeneration (%) after 3 weeks on SIM", "setting": "[1]; 30 mM D-alanine + 7.5 mM D-serine, T2: REW008 with no recovery", "result": 14, "unit": "%"}, {"measurement": "D-alanine + 7.5 mM D-serine Kill Curve-regeneration (%) after 3 weeks on SIM", "setting": "[1]; 50 mM D-alanine + 7.5 mM D-serine, T1: REW008 with 1 week recovery", "result": 0, "unit": "%"}, {"measurement": "D-alanine + 7.5 mM D-serine Kill Curve-regeneration (%) after 3 weeks on SIM", "setting": "[1]; 50 mM D-alanine + 7.5 mM D-serine, T2: REW008 with no recovery", "result": 0, "unit": "%"}, {"measurement": "D-alanine concentration at which the regeneration frequency drops below 70%", "setting": "[1]; explants exposed immediately after co-cultivation", "result": 30, "unit": "mM"}, {"measurement": "D-alanine concentration at which the regeneration frequency drops below 70%", "setting": "[1]; explants with recovery", "result": 20, "unit": "mM"}]}, {"smiles": "c1coc(CNc2ncnc3[nH]cnc23)c1", "note": "[Kinetin]", "values": [{"measurement": "Ave TE (%)", "setting": "soybean explants; [2]", "result": 1.4, "unit": "%"}, {"measurement": "Confirmed events", "setting": "soybean explants; [2]", "result": 10}, {"measurement": "TE range (%)", "setting": "soybean explants; [2]", "result": "0-6.4%"}, {"measurement": "Ave TE (%)", "setting": "soybean explants; [3]", "result": 2.3, "unit": "%"}, {"measurement": "Confirmed events", "setting": "soybean explants; [3]", "result": 9}, {"measurement": "TE range (%)", "setting": "soybean explants; [3]", "result": "0-4.2%"}, {"measurement": "Ave TE (%)", "setting": "soybean explants; [4]", "result": 2.7, "unit": "%"}, {"measurement": "Confirmed events", "setting": "soybean explants; [4]", "result": 19}, {"measurement": "TE range (%)", "setting": "soybean explants; [4]", "result": "0-9.8%"}, {"measurement": "Ave TE (%)", "setting": "soybean explants; [5]", "result": 3.7, "unit": "%"}, {"measurement": "Confirmed events", "setting": "soybean explants; [5]", "result": 8}, {"measurement": "TE range (%)", "setting": "soybean explants; [5]", "result": "1.3-8.1%"}, {"measurement": "Ave TE (%)", "setting": "soybean explants; [6]", "result": 2.5, "unit": "%"}, {"measurement": "Confirmed events", "setting": "soybean explants; [6]", "result": 6}, {"measurement": "TE range (%)", "setting": "soybean explants; [6]", "result": "2.3-2.7%"}, {"measurement": "Ave TE (%)", "setting": "soybean explants; [7]", "result": 1.8, "unit": "%"}, {"measurement": "Confirmed events", "setting": "soybean explants; [7]", "result": 4}, {"measurement": "TE range (%)", "setting": "soybean explants; [7]", "result": "1.2-3%"}, {"measurement": "Ave TE (%)", "setting": "soybean explants; [8]", "result": 2.2, "unit": "%"}, {"measurement": "Confirmed events", "setting": "soybean explants; [8]", "result": 5}, {"measurement": "TE range (%)", "setting": "soybean explants; [8]", "result": "0-5.2%"}, {"measurement": "average transformation efficiency with kinetin in the co-cultivation media compared with BAP", "setting": "soybean explants; both experiments", "result": "higher average transformation efficiencies"}]}, {"smiles": "c1ccc(CNc2ncnc3nc[nH]c23)cc1", "note": "[BAP, 6-benzylaminopurine]", "values": [{"measurement": "Ave TE (%)", "setting": "soybean explants; [9]", "result": 0.4, "unit": "%"}, {"measurement": "Confirmed events", "setting": "soybean explants; [9]", "result": 3}, {"measurement": "TE range (%)", "setting": "soybean explants; [9]", "result": "0-2.5%"}, {"measurement": "Ave TE (%)", "setting": "soybean explants; [10]", "result": 1.3, "unit": "%"}, {"measurement": "Confirmed events", "setting": "soybean explants; [10]", "result": 3}, {"measurement": "TE range (%)", "setting": "soybean explants; [10]", "result": "0-2.5%"}]}]}
